Experimental data taken from patent US20240059691A1 (KALVISTA PHARMACEUTICALS LIMITED, priority 2020, published 2024).

Assays:
Plasma Kallikrein = Plasma Kallikrein (Homo sapiens (Human), UniProt P03952); test: Determination of related protease inhibition: Plasma Kallikrein (fluorogenic substrate at Km); type: biochemical; conditions: 25° C., read-out: IC50 (human PKal)
Summary of the method: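 Fluorescence release from a Km-level fluorogenic substrate, read for 5 min at 25 °C, gave the linear rate per minute for each inhibitor concentration. Rates were converted to % of uninhibited human enzyme activity; IC50 = inhibitor concentration producing 50% inhibition.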

Human Factor XIIa = Human Factor XIIa (Homo sapiens (Human), UniProt P00748); test: Determination of FXIIa inhibition (fluorogenic substrate H-DPro-Phe-Arg-AFC, IC50 assay); type: biochemical; conditions: substrate H-DPro-Phe-Arg-AFC at Km, 25° C.; class scale A-G
Summary of the method: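 IC50 derived from % remaining activity, taken as the linear fluorescence rate over a 5 min read at 25° C. Substrate H-DPro-Phe-Arg-AFC was used at its Km (Michaelis-Menten) with human FXIIa and serial compound dilutions, 25° C.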

Sequence of Plasma Kallikrein (P03952 391-638): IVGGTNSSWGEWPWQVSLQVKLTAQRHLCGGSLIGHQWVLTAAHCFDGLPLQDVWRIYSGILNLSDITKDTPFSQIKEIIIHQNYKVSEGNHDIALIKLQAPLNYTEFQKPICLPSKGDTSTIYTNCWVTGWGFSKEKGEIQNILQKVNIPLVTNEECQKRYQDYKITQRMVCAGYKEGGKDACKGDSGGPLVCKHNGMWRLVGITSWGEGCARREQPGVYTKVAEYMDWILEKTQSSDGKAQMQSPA
Sequence of Plasma Kallikrein (P03952 20-390 partner): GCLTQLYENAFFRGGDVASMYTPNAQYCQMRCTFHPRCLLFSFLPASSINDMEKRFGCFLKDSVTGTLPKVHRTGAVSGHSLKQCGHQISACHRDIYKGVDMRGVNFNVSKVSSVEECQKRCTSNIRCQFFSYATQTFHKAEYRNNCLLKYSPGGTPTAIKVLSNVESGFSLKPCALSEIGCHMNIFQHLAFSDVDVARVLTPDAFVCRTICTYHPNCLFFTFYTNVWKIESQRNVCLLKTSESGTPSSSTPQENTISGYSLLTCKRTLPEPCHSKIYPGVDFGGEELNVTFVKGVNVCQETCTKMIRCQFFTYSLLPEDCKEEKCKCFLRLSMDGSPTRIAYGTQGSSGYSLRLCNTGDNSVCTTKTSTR
Sequence of Human Factor XIIa (P00748 373-615): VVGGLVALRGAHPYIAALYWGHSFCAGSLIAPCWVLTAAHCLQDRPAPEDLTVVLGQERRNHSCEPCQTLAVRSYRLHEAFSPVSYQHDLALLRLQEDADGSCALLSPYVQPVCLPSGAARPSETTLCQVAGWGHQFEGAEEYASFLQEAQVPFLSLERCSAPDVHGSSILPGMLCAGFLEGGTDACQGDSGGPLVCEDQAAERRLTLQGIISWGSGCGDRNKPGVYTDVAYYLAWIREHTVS

Compound | IC50 (Plasma Kallikrein) [µM] | IC50 (Human Factor XIIa) [µM]
Nc1ncc(Cl)c2cc(NCc3ccnc(OCC4CCCn5ccnc54)c3)ccc12 (single isomer, unassigned) [Example 4451, (R*)-4-chloro-N6-((2-((5,6,7,8-tetrahydroimidazo[1,2-a]pyridin-8-yl)methoxy)pyridin-4-yl)methyl)isoquinoline-1,6-diamine] | > 40 | 0.3 to 1
Nc1ncc(Cl)c2cc(NCc3ccnc(OCC4CCCn5ccnc54)c3)ccc12 (single isomer, unassigned) [Example 4450, (S*)-4-chloro-N6-((2-((5,6,7,8-tetrahydroimidazo[1,2-a]pyridin-8-yl)methoxy)pyridin-4-yl)methyl)isoquinoline-1,6-diamine] | 10 to 40 | 0.1 to 0.3
Cc1cc(NCc2ccc(NCC3CCN(C)CC3)nc2)c2cc[nH]c2n1 [Example 1246, 6-methyl-N-((6-(((1-methylpiperidin-4-yl)methyl)amino)pyridin-3-yl)methyl)-1H-pyrrolo[2,3-b]pyridin-4-amine] | > 40 | 3 to 10
Nc1ncc(Cl)c2cc(NCc3ccc(NCc4nccn4C(F)F)nc3)ccc12 [Example 1185] | > 40 | 10 to 40
CNc1cc(NCc2ccc(N3CCn4c(nnc4C(F)F)C3)nc2)ccn1 [Example 1281, N4-((6-(3-(difluoromethyl)-5,6-dihydro-[1,2,4]triazolo[4,3-a]pyrazin-7(8H)-yl)pyridin-3-yl)methyl)-N2-methylpyridine-2,4-diamine] | > 40 | 10 to 40
Nc1ncc(Cl)c2cc(NCc3ccc(N4CCn5nccc5C4CO)nc3)ccc12 (stereo not shown) [Example 1273, (5-(5-(((1-amino-4-chloroisoquinolin-6-yl)amino)methyl)pyridin-2-yl)-4,5,6,7-tetrahydropyrazolo[1,5-a]pyrazin-4-yl)methanol] | > 40 | 3 to 10
Nc1ncc(Cl)c2cc(NCc3ccc(NCC4CCn5ccnc5C4)nc3)ccc12 (stereo not shown) [Example 1044, 4-Chloro-N6-[[6-(5,6,7,8-tetrahydroimidazo[1,2-a]pyridin-7-ylmethylamino)-3-pyridyl]methyl]isoquinoline-1,6-diamine] | 3 to 10 | 0.1 to 0.3
Nc1nccc2c(NCc3ccnc(OCC4CCn5ccnc5C4)c3)cccc12 (single isomer, unassigned) [Example 4431, (R*)-N5-((2-((5,6,7,8-tetrahydroimidazo[1,2-a]pyridin-7-yl)methoxy)pyridin-4-yl)methyl)isoquinoline-1,5-diamine] | > 4 | 0.1 to 0.3
CC1c2nccn2CCN1c1ccc(CNc2cccc3c(N)nccc23)cn1 (stereo not shown) [Example 1150, N5-((6-(8-methyl-5,6-dihydroimidazo[1,2-a]pyrazin-7(8H)-yl)pyridin-3-yl)methyl)isoquinoline-1,5-diamine] | > 40 | 0.3 to 1
CN1CCN(c2cc(CNc3cccc4c(N)nccc34)ccn2)CC1 [Example 4426, 5-N-{[2-(4-methylpiperazin-1-yl)pyridin-4-yl]methyl}isoquinoline-1,5-diamine] | > 40 | 10 to 40
CN1CCC(COc2cc(CNc3ccc(F)c4c(N)nccc34)ccn2)CC1 [Example 4469, 8-fluoro-N5-((2-((1-methylpiperidin-4-yl)methoxy)pyridin-4-yl)methyl)isoquinoline-1,5-diamine] | > 40 | 3 to 10
CN1CCC(OCc2ccc(CNc3ccc4cnc(N)cc4c3)cc2)CC1 [Example 2189, N6-(4-(((1-methylpiperidin-4-yl)oxy)methyl)benzyl)isoquinoline-3,6-diamine] | 10 to 40 | 10 to 40
Cc1n[nH]c2c1CCC2Nc1cc(CNc2ccc3c(N)ncc(Cl)c3c2)ccn1 (stereo not shown) [Example 4440, 4-chloro-N6-((2-((3-methyl-1,4,5,6-tetrahydrocyclopenta[c]pyrazol-6-yl)amino)pyridin-4-yl)methyl)isoquinoline-1,6-diamine] | > 40 | 10 to 40
CN1CCC(CNc2ccc(CNc3cc(C(=O)O)nc4[nH]ccc34)cn2)CC1 [Example 1263, 4-(((6-(((1-methylpiperidin-4-yl)methyl)amino)pyridin-3-yl)methyl)amino)-1H-pyrrolo [2,3-b]pyridine-6-carboxylic acid] | > 40 | 10 to 40
Nc1ncc(Cl)c2cc(NCc3ccnc(OC4CCn5ccnc5C4)c3)ccc12 (stereo not shown) [Example 4432, 4-chloro-6-N-[(2-{5H,6H,7H,8H-imidazo[1,2-a]pyridin-7-yloxy}pyridin-4-yl)methyl]isoquinoline-1,6-diamine] | > 40 | 1 to 3
Nc1nccc2c(NCc3ccc(NCCc4nccn4C(F)F)nc3)cccc12 [Example 1181, N5-((6-((2-(1-(difluoromethyl)-1H-imidazol-2-yl)ethyl)amino)pyridin-3-yl)methyl)isoquinoline-1,5-diamine] | > 40 | 10 to 40

Compound | IC50 (Plasma Kallikrein) [µM] | IC50 (Human Factor XIIa) [µM]
Nc1nccc2c(NCc3ccc(N4CCn5ccnc5C4CO)nc3)cccc12 (stereo not shown) [Example 1140, (7-(5-(((1-aminoisoquinolin-5-yl)amino)methyl)pyridin-2-yl)-5,6,7,8-tetrahydroimidazo[1,2-a]pyrazin-8-yl)methanol] | > 40 | 3 to 10
Cc1cnc2n1CCC(COc1cc(CNc3cccc4c(N)nccc34)ccn1)C2 (single isomer, unassigned) [Example 4444, (S*)-N5-((2-((3-methyl-5,6,7,8-tetrahydroimidazo[1,2-a]pyridin-7-yl)methoxy)pyridin-4-yl)methyl)isoquinoline-1,5-diamine] | 3 to 10 | 0.1 to 0.3
CC(C)N1CCC(CN(CCCO)C(=O)c2cccc(CNc3cccc4c(N)nccc34)c2)CC1 [Example 5441, 3-(((1-aminoisoquinolin-5-yl)amino)methyl)-N-(3-hydroxypropyl)-N-((1-isopropylpiperidin-4-yl)methyl)benzamide] | > 40 | 3 to 10
Nc1nccc2c(NCc3ccc(N4CCC(CC(F)F)C4)nc3)cccc12 (stereo not shown) [Example 1265, N5-((6-(3-(2,2-difluoroethyl)pyrrolidin-1-yl)pyridin-3-yl)methyl)isoquinoline-1,5-diamine] | > 40 | 3 to 10
Nc1ncc(Cl)c2cc(NCc3cnc(NCCC(=O)N4CCCC4)nc3)ccc12 [Example 1040, 3-[(5-{[(1-amino-4-chloroisoquinolin-6-yl)amino]methyl}pyrimidin-2-yl)amino]-1-(pyrrolidin-1-yl)propan-1-one] | > 40 | 10 to 40
CN1CCC(COc2cc(CNc3ccnc4[nH]ccc34)ccn2)CC1 [Example 4459, N-((2-((1-methylpiperidin-4-yl)methoxy)pyridin-4-yl)methyl)-1H-pyrrolo[2,3-b]pyridin-4-amine] | > 100 | 10 to 40
Nc1ncc(Cl)c2cc(NCc3ccnc(OCC4CCn5cc(CO)nc5C4)c3)ccc12 (stereo not shown) [Example 4449, (7-(((4-(((1-amino-4-chloroisoquinolin-6-yl)amino)methyl)pyridin-2-yl)oxy)methyl)-5,6,7,8-tetrahydroimidazo[1,2-a]pyridin-2-yl)methanol] | > 40 | 0.3 to 1
Nc1ncc(Cl)c2cc(NCc3ccc(NCCc4nccn4C(F)F)nc3)ccc12 [Example 1182, 4-chloro-N6-((6-((2-(1-(difluoromethyl)-1H-imidazol-2-yl)ethyl)amino)pyridin-3-yl)methyl)isoquinoline-1,6-diamine] | > 40 | 10 to 40
COc1ccc(NCc2ccnc(OCC3CCN(C)CC3)c2)c2ccnc(N)c12 [Example 4470, 8-methoxy-N5-((2-((1-methylpiperidin-4-yl)methoxy)pyridin-4-yl)methyl)isoquinoline-1,5-diamine] | > 40 | 10 to 40
CN1CCC(Oc2ccc(CNc3ccc4ccnc(N)c4c3)cc2)CC1 [Example 1003, N7-(4-((1-methylpiperidin-4-yl)oxy)benzyl)isoquinoline-1,7-diamine] | 10 to 40 | 3 to 10
Nc1ncc(Cl)c2cc(NCc3ccnc(OCC4CCn5c(CO)cnc5C4)c3)ccc12 (stereo not shown) [Example 4448, (7-(((4-(((1-amino-4-chloroisoquinolin-6-yl)amino)methyl)pyridin-2-yl)oxy)methyl)-5,6,7,8-tetrahydroimidazo[1,2-a]pyridin-3-yl)methanol] | > 40 | 0.3 to 1
CNc1cc(NCc2ccc(NCC3CCN(C)CC3)nc2)ccn1 [Example 1219, N2-Methyl-N4-((6-(((1-methylpiperidin-4-yl)methyl)amino)pyridin-3-yl)methyl)pyridine-2,4-diamine] | > 100 | 3 to 10
Nc1ncc(Cl)c2cc(NCc3ccc(N4CCn5ccnc5C4)nc3)ccc12 [Example 1129, 4-chloro-6-N-[(6-{5H,6H,8H-imidazo[1,2-a]pyrazin-7-yl}pyridin-3-yl)methyl]isoquinoline-1,6-diamine] | > 40 | 3 to 10
Cc1cn2c(n1)CC(COc1cc(CNc3ccc4c(N)ncc(Cl)c4c3)ccn1)CC2 (stereo not shown) [Example 4309, 4-chloro-6-N-{[2-({2-methyl-5H,6H,7H,8H-imidazo[1,2-a]pyridin-7-yl}methoxy)pyridin-4-yl]methyl}isoquinoline-1,6-diamine] | > 4 | 0.1 to 0.3
COC(=O)c1c[nH]c2nccc(NCc3ccc(NCC4CCN(C)CC4)nc3)c12 [Example 1248, methyl 4-(((6-(((1-methylpiperidin-4-yl)methyl)amino)pyridin-3-yl)methyl)amino)-1H-pyrrolo[2,3-b]pyridine-3-carboxylate] | > 20 | 10 to 40
Cc1cc(NCc2ccc(NCC3CCN(C)CC3)nc2)cc2ccncc12 [Example 1102, 8-methyl-N-((6-(((1-methylpiperidin-4-yl)methyl)amino)pyridin-3-yl)methyl)isoquinolin-6-amine] | 10 to 40 | 3 to 10
